The values that follow come from patent US20140033367A1 (priority 2010, published 2014).

In test [1] the test system is protoplasts from UT leaves. Kind of test: Protoplast culture with hormones or hormone conjugates, UT protoplasts. Type of test: cell-based, Nicotiana tabacum. The conditions noted are these: for Division Efficiency / Plating Efficiency: hormone concentration in mg L^−1. How it is done:
(§1) To evaluate the effects of hormones or hormone conjugates on protoplast division, six hormones or conjugate combinations (Table IV) were tested in the protoplast culture.
(§2) The protocol of the protoplast isolation was modified from the method of Rao and Prakash (1995). Leaves from BGL-1 and UT were cut into small pieces and placed on the surface of the enzyme solution with the lower surface down. Incubation was carried out in the dark at a temperature of 25° C.±1° C. for 8 h to release the protoplasts. The enzymatic cocktail contained 2% (w/v) cellulase Onozuka R-10, 0.5% (w/v) macerozyme R-10, 0.2% (w/v) dextran potassium sulfate, 5 mm CaCl2.2H2O, and 0.7 m mannitol, pH 5.8. After removing undigested materials and digested debris by filtration through a […] steel mesh, the enzymatic mixture was centrifuged at 1,000 rpm for 10 min. The protoplasts were resuspended in 5 mL of washing medium, and the process was repeated three times. Protoplasts were cultured at a density of 2×10^5 mL^−1 in 5-cm petri dishes in 3 mL of culture medium (Rao and Prakash, 1995) supplemented with different hormone or conjugate hormone regimes (Table IV). The cultures were kept at 25° C. in the dark. After 7 d, fresh medium was added to each petri dish, and the addition of medium was repeated on the 11th d of culture. […] After the development of microcalli visible to the naked eye, the cultures were transferred to light.

Test [2] deals with protoplasts from BGL-1 leaves. The experiment in a line: Protoplast culture with hormones or hormone conjugates, BGL-1 protoplasts. Type of test: cell-based, Nicotiana tabacum. The conditions noted are these: for Division Efficiency / Plating Efficiency: BGL-1 protoplasts, hormone concentration in mg L^−1. The method, then: as §1, §2

Take `C/C(=C\CNc1ncnc2[nH]cnc12)CO` [Zeatin (1.0), Zeatin]: in test [1], the “Division Efficiency” value stood at 6.8 ± 0.9% and the “Plating Efficiency” value was 4.6 ± 0.3%. Moreover, in test [2], the “Division Efficiency” value was found to be 10.6 ± 0.8% and the “Plating Efficiency” value came to 6.2 ± 0.4%.

Take “Naphthylacetic acid [Naphthylacetic acid (3.0)]”: in test [1], the “Division Efficiency” value amounted to 4.8 ± 0.7% and the “Plating Efficiency” value is recorded as 3.3 ± 0.2%. In test [2], the “Division Efficiency” value was 9.1 ± 1.8% and the “Plating Efficiency” value was 4.3 ± 0.5%.

As for “Zeatin-O-glucoside [Zeatin-O-glucoside (1.0)]”, the “Division Efficiency” value was 0% in test [1] and 7.5 ± 1.2% in test [2]. Moreover, the “Plating Efficiency” value in test [1] was determined as 0%; in test [2], 3.7 ± 0.3%. In test [1] (zeatin-O-glucoside only), the “protoplast division and cell colony formation” value was “did not divide and form cell colonies”. For the same compound, the “increase of cell division efficiency of BGL-1 protoplasts compared with UT protoplasts” value in test [2] (exogenously supplied zeatin-O-glucoside) came to 670%.
